Among the data in the SangsterLogP compilation are logP values, retold here.

A short description of the data set: method code SF-AS, from Mauleón, D.; Pujol, M.; Rosell, G. (1988). B-Adrenergic antagonists: N-alkyl and N-amidoethyl (arylalkoxy)propanolamines related to propranolol. Eur J Med Chem, 23, 421-426.
For `CC(C)NCC(O)COCc1ccccc1` (stereo unspecified), the logP (commonly the decadic logarithm of the partition coefficient of the neutral form, usually between octanol and water) is 1.62.

Consider `CC(C)(C)NCC(O)COC1CCCc2ccccc21` (stereo unspecified), for which the logP was found to be 3.55.

Compound `CC(C)NCC(O)COC1CCCc2ccccc21` (stereo unspecified) displayed a logP of 3.42.

Regarding `CC(C)C(=O)NCCNCC(O)COCCCc1ccccc1` (stereo unspecified), the logP amounted to 1.25.

In turn, `CC(C)NCC(O)COCCCc1ccccc1` (stereo unspecified) gave a logP of 1.54.

For `O=C(Cc1ccccc1)NCCNCC(O)COC1CCCc2ccccc21` (stereo unspecified), the logP was 1.68.

`CC(C)NCC(O)COCCc1ccccc1` (stereo unspecified): the logP is 1.76.

As for `CC(CCCOCC(O)CNC(C)(C)C)c1ccccc1` (stereo unspecified), the log partition coefficient (logP) worked out at 2.29.

As for `CC(C)C(=O)NCCNCC(O)COCCOc1ccccc1` (stereo unspecified), the logP is 0.48.

Take `O=C(Cc1ccccc1)NCCNCC(O)COCC=Cc1ccccc1` (stereo unspecified): the logP is 1.76.

The compound `O=C(Cc1ccccc1)NCCNCC(O)COCCc1ccccc1` (stereo unspecified) returned a lipophilicity (logP) of 1.24.

`CC(C)(C)NCC(O)COc1ccccc1` (stereo unspecified) displayed a logP of 1.5.

As for `CC(C)NCC(O)COC/C=C/c1ccccc1` (stereo unspecified), the logP came to 2.15.

As to `CC(C)C(=O)NCCNCC(O)COCc1ccccc1` (stereo unspecified), the logP was 0.63.

The compound `CC(C)C(=O)NCCNCC(O)COc1ccccc1` (stereo unspecified) had a logP of 1.14.

In the case of `CC(C)(C)NCC(O)COCCc1ccccc1` (stereo unspecified), the logP was found to be 2.51.

Regarding `CC(C)NCC(O)COCCCC(C)c1ccccc1` (stereo unspecified), the logP was determined as 2.95.

Turning to `CC(C)NCC(O)COCCOc1ccccc1` (stereo unspecified), the logP turned out to be 1.63.

For `O=C(Cc1ccccc1)NCCNCC(O)COc1ccccc1` (stereo unspecified), the logP worked out at 0.63.

In turn, `CC(C)C(=O)NCCNCC(O)COC1CCCc2ccccc21` (stereo unspecified) had a logP of 1.99.

The compound `O=C(Cc1ccccc1)NCCNCC(O)COCc1ccccc1` (stereo unspecified) came in with a logP of 1.05.

With `CC(C)(C)NCC(O)COCc1ccccc1` (stereo unspecified), the logP was determined as 1.7.

Consider `CC(C)C(=O)NCCNCC(O)COCCc1ccccc1` (stereo unspecified), for which the logP worked out at 0.95.

`CC(C)(C)NCC(O)COCCOc1ccccc1` (stereo unspecified) yielded a logP of 2.35.

`O=C(Cc1ccccc1)NCCNCC(O)COCCOc1ccccc1` (stereo unspecified) showed a logP of 0.75.

`CC(C)C(=O)NCCNCC(O)COCC=Cc1ccccc1` (stereo unspecified): the logP turned out to be 0.51.
